Experimental data from ChEMBL document CHEMBL1201862, “PubChem BioAssay data set” (2004).
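Interpolation was linear, between the two tested concentrations surrounding the appropriate level; five concentrations were tested over 48 hours in 96-well plates. The concentration for 50% growth inhibition is given as GI50.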 Activity calls are given as the source filed them. No stated cut-off is given here; in the data, active = GI50 up to about 1.1 µM and inactive = higher.

What was measured:
Test in all cases: NCI tumour cell line growth inhibition, 48 h
NCI-H23 = test system: NCI-H23
MOLT-4 = test system: MOLT-4
RXF 393 = test system: RXF 393
OVCAR-4 = test system: OVCAR-4
KM-20L2 = test system: KM-20L2
IGROV-1 = test system: IGROV-1
SK-MEL-28 = test system: SK-MEL-28
786-0 = test system: 786-0
DMS-273 = test system: DMS-273
SK-OV-3 = test system: SK-OV-3
HCT-116 = test system: HCT-116
HOP-92 = test system: HOP-92
NCI-H226 = test system: NCI-H226
CAKI-1 = test system: CAKI-1
DLD-1 = test system: DLD-1
SNB-78 = test system: SNB-78
OVCAR-8 = test system: OVCAR-8
U-251 = test system: U-251
SF-539 = test system: SF-539
SW-620 = test system: SW-620
SK-MEL-5 = test system: SK-MEL-5
UO-31 = test system: UO-31
HT-29 = test system: HT-29
A549 = test system: A549
RPMI-8226 = test system: RPMI-8226
ACHN = test system: ACHN
Malme-3M = test system: Malme-3M
M14 = test system: M14
K562 = test system: K562
LOX IMVI = test system: LOX IMVI
SN12C = test system: SN12C
SF-295 = test system: SF-295
SR = test system: SR
KM12 = test system: KM12
UACC-62 = test system: UACC-62
SF-268 = test system: SF-268
XF498 = test system: XF498
SNB-19 = test system: SNB-19
HCC 2998 = test system: HCC 2998
HCT-15 = test system: HCT-15
OVCAR-5 = test system: OVCAR-5
CCRF-CEM = test system: CCRF-CEM
COLO 205 = test system: COLO 205
OVCAR-3 = test system: OVCAR-3
SK-MEL-2 = test system: SK-MEL-2
TK-10 = test system: TK-10
EKVX = test system: EKVX
SNB-75 = test system: SNB-75
A498 = test system: A498
UACC-257 = test system: UACC-257
DMS-114 = test system: DMS-114
LXFL 529 = test system: LXFL 529
NCI-H522 = test system: NCI-H522
HL-60 = test system: HL-60
NCI-H460 = test system: NCI-H460
HOP-62 = test system: HOP-62
M19-MEL = test system: M19-MEL
HOP-18 = test system: HOP-18

## COc1cc(C=O)c(-c2cc3c(cc2C2(C)OCCS2)OCO3)c(OC)c1OC (configuration not stated)
NCI-H23
  GI50: 21.9 µM (inactive)
MOLT-4
  GI50: 12.5 µM (inactive)
RXF 393
  GI50: 7.38 µM (inactive)
OVCAR-4
  GI50: 17.9 µM (inactive)
KM-20L2
  GI50: 4.08 µM (inactive)
IGROV-1
  GI50: 28.2 µM (inactive)
SK-MEL-28
  GI50: 4.4 µM (inactive)
786-0
  GI50: 7.4 µM (inactive)
DMS-273
  GI50: 10.3 µM (inactive)
SK-OV-3
  GI50: 13.6 µM (inactive)
HCT-116
  GI50: 8 µM (inactive)
HOP-92
  GI50: 14.8 µM (inactive)
NCI-H226
  GI50: 6.32 µM (inactive)
CAKI-1
  GI50: 11.6 µM (inactive)
DLD-1
  GI50: 16.7 µM (inactive)
SNB-78
  GI50: 8.65 µM (inactive)
OVCAR-8
  GI50: 19.1 µM (inactive)
U-251
  GI50: 15.5 µM (inactive)
SF-539
  GI50: 5.85 µM (inactive)
SW-620
  GI50: 7.94 µM (inactive)
SK-MEL-5
  GI50: 9.14 µM (inactive)
UO-31
  GI50: 14.1 µM (inactive)
HT-29
  GI50: 6.68 µM (inactive)
A549
  GI50: 8.71 µM (inactive)
RPMI-8226
  GI50: 11.4 µM (inactive)
ACHN
  GI50: 18.5 µM (inactive)
Malme-3M
  GI50: 12 µM (inactive)
M14
  GI50: 5.73 µM (inactive)
K562
  GI50: 8.83 µM (inactive)
LOX IMVI
  GI50: 9.12 µM (inactive)
SN12C
  GI50: 13.5 µM (inactive)
SF-295
  GI50: 13.3 µM (inactive)
SR
  GI50: 14.1 µM (inactive)
KM12
  GI50: 9.53 µM (inactive)
UACC-62
  GI50: 12.6 µM (inactive)
SF-268
  GI50: 36.5 µM (inactive)
XF498
  GI50: 9.66 µM (inactive)
SNB-19
  GI50: 30.2 µM (inactive)
HCC 2998
  GI50: 16.4 µM (inactive)
HCT-15
  GI50: 8.22 µM
OVCAR-5
  GI50: 50 µM (inactive)
CCRF-CEM
  GI50: 7.59 µM (inactive)
COLO 205
  GI50: 4.24 µM (inactive)
OVCAR-3
  GI50: 5.14 µM (inactive)
SK-MEL-2
  GI50: 11.4 µM (inactive)
TK-10
  GI50: 57.8 µM (inactive)
EKVX
  GI50: 19.7 µM (inactive)
SNB-75
  GI50: 7.89 µM (inactive)
A498
  GI50: 7.85 µM (inactive)
UACC-257
  GI50: 8.83 µM (inactive)
DMS-114
  GI50: 17.5 µM (inactive)
LXFL 529
  GI50: 17.6 µM (inactive)
NCI-H522
  GI50: 6.08 µM (inactive)
HL-60
  GI50: 8.07 µM (inactive)
NCI-H460
  GI50: 18.9 µM (inactive)
HOP-62
  GI50: 15.5 µM (inactive)

## CN(C)CC/C(=N\Nc1ccc(Cl)cc1Cl)c1ccccc1
NCI-H23
  GI50: 17 µM (inactive)
MOLT-4
  GI50: 5.73 µM (inactive)
RXF 393
  GI50: 7.96 µM (inactive)
OVCAR-4
  GI50: > 10 µM (inactive)
KM-20L2
  GI50: 14.3 µM (inactive)
IGROV-1
  GI50: 10.1 µM (inactive)
SK-MEL-28
  GI50: 15.2 µM (inactive)
786-0
  GI50: 13.7 µM (inactive)
M19-MEL
  GI50: 17.2 µM (inactive)
DMS-273
  GI50: 13.8 µM (inactive)
SK-OV-3
  GI50: 12.3 µM (inactive)
HCT-116
  GI50: 13.8 µM (inactive)
DLD-1
  GI50: 10.3 µM (inactive)
SNB-78
  GI50: 13.5 µM (inactive)
OVCAR-8
  GI50: 17.7 µM (inactive)
U-251
  GI50: 12.4 µM (inactive)
SF-539
  GI50: 18.1 µM (inactive)
SW-620
  GI50: 16 µM (inactive)
SK-MEL-5
  GI50: 14.6 µM (inactive)
UO-31
  GI50: 2.37 µM (inactive)
HT-29
  GI50: 14.3 µM (inactive)
A549
  GI50: 15 µM (inactive)
RPMI-8226
  GI50: 3.94 µM (inactive)
ACHN
  GI50: 15 µM (inactive)
Malme-3M
  GI50: 23.3 µM (inactive)
M14
  GI50: 15.5 µM (inactive)
K562
  GI50: 14.3 µM (inactive)
LOX IMVI
  GI50: 14.8 µM (inactive)
SN12C
  GI50: 12.6 µM (inactive)
SF-295
  GI50: 18.5 µM (inactive)
SR
  GI50: 12 µM (inactive)
KM12
  GI50: 16 µM (inactive)
UACC-62
  GI50: 14.6 µM (inactive)
HOP-18
  GI50: 8.85 µM (inactive)
SNB-19
  GI50: 16.1 µM (inactive)
HCT-15
  GI50: 12.4 µM
OVCAR-5
  GI50: 16.9 µM (inactive)
CCRF-CEM
  GI50: 12.7 µM (inactive)
COLO 205
  GI50: 15.1 µM (inactive)
OVCAR-3
  GI50: 14 µM (inactive)
SK-MEL-2
  GI50: 14.5 µM (inactive)
TK-10
  GI50: 15.1 µM (inactive)
EKVX
  GI50: 20.6 µM (inactive)
SNB-75
  GI50: 7.74 µM (inactive)
A498
  GI50: 16.4 µM (inactive)
UACC-257
  GI50: 15.9 µM (inactive)
DMS-114
  GI50: 13.8 µM (inactive)
LXFL 529
  GI50: 13.2 µM (inactive)
NCI-H522
  GI50: > 10 µM (inactive)
HL-60
  GI50: 5.07 µM (inactive)
NCI-H460
  GI50: 13.8 µM (inactive)
HOP-62
  GI50: 13.9 µM (inactive)

## COc1ccc2c(c1)CC[C@@H]1C2CC[C@]2(C)C(=O)N(CCN3CCCCC3)C(=O)CC12 (some centres not stated)
NCI-H23
  GI50: > 100 µM (inactive)
MOLT-4
  GI50: > 10 µM (inactive)
RXF 393
  GI50: 31.9 µM (inactive)
OVCAR-4
  GI50: > 100 µM (inactive)
KM-20L2
  GI50: 47.6 µM (inactive)
IGROV-1
  GI50: > 100 µM (inactive)
SK-MEL-28
  GI50: 34.8 µM (inactive)
786-0
  GI50: > 100 µM (inactive)
M19-MEL
  GI50: 35.8 µM (inactive)
SK-OV-3
  GI50: > 100 µM (inactive)
HCT-116
  GI50: > 100 µM (inactive)
HOP-92
  GI50: 44.5 µM (inactive)
SNB-78
  GI50: > 100 µM (inactive)
U-251
  GI50: > 100 µM (inactive)
SF-539
  GI50: > 100 µM (inactive)
UO-31
  GI50: 83.2 µM (inactive)
HT-29
  GI50: 51.5 µM (inactive)
RPMI-8226
  GI50: 74.5 µM (inactive)
ACHN
  GI50: > 100 µM (inactive)
Malme-3M
  GI50: 57.3 µM (inactive)
M14
  GI50: 21.3 µM (inactive)
K562
  GI50: 58.1 µM (inactive)
SF-295
  GI50: > 100 µM (inactive)
SR
  GI50: 75.3 µM (inactive)
KM12
  GI50: > 100 µM (inactive)
UACC-62
  GI50: 21.2 µM (inactive)
SF-268
  GI50: > 100 µM (inactive)
SNB-19
  GI50: > 100 µM (inactive)
OVCAR-5
  GI50: > 100 µM (inactive)
CCRF-CEM
  GI50: 75.5 µM (inactive)
COLO 205
  GI50: > 100 µM (inactive)
SK-MEL-2
  GI50: 60.3 µM (inactive)
SNB-75
  GI50: 58.5 µM (inactive)
A498
  GI50: 36.4 µM (inactive)
UACC-257
  GI50: 44.3 µM (inactive)
LXFL 529
  GI50: > 100 µM (inactive)
NCI-H522
  GI50: 78.9 µM (inactive)
HL-60
  GI50: 21.6 µM (inactive)
NCI-H460
  GI50: > 100 µM (inactive)
HOP-62
  GI50: > 100 µM (inactive)

## O=c1cccccc1O.O=c1cccccc1O.O=c1cccccc1O.[SiH4]
NCI-H23
  GI50: 16.5 µM (inactive)
MOLT-4
  GI50: 5.74 µM (inactive)
OVCAR-4
  GI50: 11.9 µM (inactive)
KM-20L2
  GI50: 3.75 µM (inactive)
IGROV-1
  GI50: 12.8 µM (inactive)
SK-MEL-28
  GI50: 55.1 µM (inactive)
786-0
  GI50: 33 µM (inactive)
M19-MEL
  GI50: 18.8 µM (inactive)
DMS-273
  GI50: 14.5 µM (inactive)
SK-OV-3
  GI50: 31.8 µM (inactive)
HCT-116
  GI50: 13.6 µM (inactive)
HOP-92
  GI50: 37.9 µM (inactive)
CAKI-1
  GI50: 56.2 µM (inactive)
DLD-1
  GI50: 6.43 µM (inactive)
OVCAR-8
  GI50: 11.5 µM (inactive)
U-251
  GI50: 21.3 µM (inactive)
SF-539
  GI50: 18.3 µM (inactive)
SW-620
  GI50: 10.4 µM (inactive)
SK-MEL-5
  GI50: 24.8 µM (inactive)
UO-31
  GI50: 25.2 µM (inactive)
HT-29
  GI50: 33.4 µM (inactive)
A549
  GI50: 25.6 µM (inactive)
RPMI-8226
  GI50: 9.73 µM (inactive)
ACHN
  GI50: 10 µM (inactive)
Malme-3M
  GI50: 54.6 µM (inactive)
M14
  GI50: 33.5 µM (inactive)
K562
  GI50: 6.87 µM (inactive)
SN12C
  GI50: 25.3 µM (inactive)
SF-295
  GI50: 41.2 µM (inactive)
KM12
  GI50: 26.8 µM (inactive)
UACC-62
  GI50: 0.822 µM (active)
HOP-18
  GI50: 65.9 µM (inactive)
SF-268
  GI50: 42.9 µM (inactive)
XF498
  GI50: 17.7 µM (inactive)
SNB-19
  GI50: > 100 µM (inactive)
HCC 2998
  GI50: 32.4 µM (inactive)
OVCAR-5
  GI50: 28.6 µM (inactive)
CCRF-CEM
  GI50: 2.64 µM (inactive)
COLO 205
  GI50: 11 µM (inactive)
OVCAR-3
  GI50: 24.2 µM (inactive)
TK-10
  GI50: 74 µM (inactive)
EKVX
  GI50: < 0.01 µM (active)
SNB-75
  GI50: 29.1 µM (inactive)
A498
  GI50: 34.4 µM (inactive)
UACC-257
  GI50: 21 µM (inactive)
DMS-114
  GI50: 11.7 µM (inactive)
LXFL 529
  GI50: 18.8 µM (inactive)
NCI-H522
  GI50: 2.33 µM (inactive)
HOP-62
  GI50: 28.4 µM (inactive)
